Reference: the NIST ThermoML archive (doi:10.1016/j.fluid.2014.11.026)
Numbers after ± are expanded uncertainties.

Details: Closed cell (Static) method

O=C(O)c1ccccc1 [benzoic acid]
vapor or sublimation pressure (297.67 K, Crystal): 0.000108 ± 0.0001 kPa
vapor or sublimation pressure (299.96 K, Crystal): 0.000142 ± 0.0001 kPa
vapor or sublimation pressure (300.03 K, Crystal): 0.000143 ± 0.0001 kPa
vapor or sublimation pressure (302.51 K, Crystal): 0.000193 ± 0.0001 kPa
vapor or sublimation pressure (304.75 K, Crystal): 0.00025 ± 0.0001 kPa
vapor or sublimation pressure (307.27 K, Crystal): 0.000335 ± 0.0001 kPa
vapor or sublimation pressure (309.63 K, Crystal): 0.000436 ± 0.00011 kPa
vapor or sublimation pressure (312.08 K, Crystal): 0.000573 ± 0.00011 kPa
vapor or sublimation pressure (314.4 K, Crystal): 0.000738 ± 0.00011 kPa
vapor or sublimation pressure (314.59 K, Crystal): 0.000754 ± 0.00011 kPa
vapor or sublimation pressure (316.91 K, Crystal): 0.000969 ± 0.00011 kPa
vapor or sublimation pressure (319.48 K, Crystal): 0.00127 ± 0.00012 kPa
vapor or sublimation pressure (321.91 K, Crystal): 0.001641 ± 0.00013 kPa
vapor or sublimation pressure (324.39 K, Crystal): 0.002118 ± 0.00014 kPa
vapor or sublimation pressure (326.76 K, Crystal): 0.002676 ± 0.00015 kPa
vapor or sublimation pressure (329.2 K, Crystal): 0.003432 ± 0.00018 kPa
vapor or sublimation pressure (331.62 K, Crystal): 0.004361 ± 0.00021 kPa
vapor or sublimation pressure (334.07 K, Crystal): 0.005542 ± 0.00025 kPa
vapor or sublimation pressure (336.46 K, Crystal): 0.006934 ± 0.0003 kPa
vapor or sublimation pressure (338.98 K, Crystal): 0.008733 ± 0.00037 kPa

O=C(c1ccccc1)c1ccccc1 [benzophenone]
vapor or sublimation pressure (300.37 K, Crystal): 0.000119 ± 0.0001 kPa
vapor or sublimation pressure (302.88 K, Crystal): 0.000161 ± 0.0001 kPa
vapor or sublimation pressure (302.91 K, Liquid): 0.000237 ± 0.0001 kPa
vapor or sublimation pressure (305.39 K, Crystal): 0.00022 ± 0.0001 kPa
vapor or sublimation pressure (305.41 K, Liquid): 0.000306 ± 0.0001 kPa
vapor or sublimation pressure (307.9 K, Crystal): 0.000302 ± 0.0001 kPa
vapor or sublimation pressure (307.91 K, Liquid): 0.000394 ± 0.0001 kPa
vapor or sublimation pressure (310.26 K, Crystal): 0.000401 ± 0.00011 kPa
vapor or sublimation pressure (310.41 K, Liquid): 0.000503 ± 0.00011 kPa
vapor or sublimation pressure (312.75 K, Crystal): 0.000535 ± 0.00011 kPa
vapor or sublimation pressure (315.24 K, Crystal): 0.000708 ± 0.00011 kPa
vapor or sublimation pressure (317.73 K, Crystal): 0.000939 ± 0.00011 kPa
vapor or sublimation pressure (318.01 K, Liquid): 0.001028 ± 0.00012 kPa
vapor or sublimation pressure (320.23 K, Crystal): 0.001239 ± 0.00012 kPa
vapor or sublimation pressure (320.51 K, Liquid): 0.001288 ± 0.00012 kPa
vapor or sublimation pressure (323.09 K, Liquid): 0.001615 ± 0.00013 kPa
vapor or sublimation pressure (325.59 K, Liquid): 0.002005 ± 0.00014 kPa
vapor or sublimation pressure (328.11 K, Liquid): 0.002469 ± 0.00015 kPa
vapor or sublimation pressure (330.61 K, Liquid): 0.003064 ± 0.00017 kPa
vapor or sublimation pressure (333.13 K, Liquid): 0.003771 ± 0.00019 kPa
vapor or sublimation pressure (335.64 K, Liquid): 0.00461 ± 0.00022 kPa
vapor or sublimation pressure (338.16 K, Liquid): 0.005616 ± 0.00025 kPa
vapor or sublimation pressure (340.68 K, Liquid): 0.006814 ± 0.0003 kPa
vapor or sublimation pressure (343.21 K, Liquid): 0.008284 ± 0.00035 kPa
vapor or sublimation pressure (345.73 K, Liquid): 0.009949 ± 0.00041 kPa
vapor or sublimation pressure (348.24 K, Liquid): 0.01196 ± 0.0005 kPa
vapor or sublimation pressure (350.76 K, Liquid): 0.01435 ± 0.00056 kPa
vapor or sublimation pressure (353.28 K, Liquid): 0.01704 ± 0.00061 kPa
vapor or sublimation pressure (355.79 K, Liquid): 0.02035 ± 0.00067 kPa
vapor or sublimation pressure (358.31 K, Liquid): 0.02415 ± 0.00073 kPa
vapor or sublimation pressure (360.82 K, Liquid): 0.02859 ± 0.00081 kPa
vapor or sublimation pressure (363.34 K, Liquid): 0.03356 ± 0.00091 kPa
vapor or sublimation pressure (368.37 K, Liquid): 0.04652 ± 0.0011 kPa
vapor or sublimation pressure (370.89 K, Liquid): 0.0543 ± 0.0013 kPa

[CH]1C=CC=C1.[CH]1C=CC=C1.[Fe] [ferrocene]
vapor or sublimation pressure (280.91 K, Crystal): 0.000154 ± 9.4e-05 kPa
vapor or sublimation pressure (282.03 K, Crystal): 0.000176 ± 9.5e-05 kPa
vapor or sublimation pressure (283.33 K, Crystal): 0.000202 ± 9.5e-05 kPa
vapor or sublimation pressure (284.44 K, Crystal): 0.000229 ± 9.6e-05 kPa
vapor or sublimation pressure (285.74 K, Crystal): 0.000264 ± 9.6e-05 kPa
vapor or sublimation pressure (286.87 K, Crystal): 0.000298 ± 9.7e-05 kPa
vapor or sublimation pressure (288.14 K, Crystal): 0.000344 ± 9.8e-05 kPa
vapor or sublimation pressure (289.31 K, Crystal): 0.000388 ± 9.8e-05 kPa
vapor or sublimation pressure (290.59 K, Crystal): 0.000447 ± 9.9e-05 kPa
vapor or sublimation pressure (291.71 K, Crystal): 0.000501 ± 0.0001 kPa
vapor or sublimation pressure (293.03 K, Crystal): 0.000576 ± 0.0001 kPa
vapor or sublimation pressure (294.12 K, Crystal): 0.000646 ± 0.0001 kPa
vapor or sublimation pressure (295.42 K, Crystal): 0.000741 ± 0.0001 kPa
vapor or sublimation pressure (296.52 K, Crystal): 0.000829 ± 0.00011 kPa
vapor or sublimation pressure (297.8 K, Crystal): 0.000942 ± 0.00011 kPa
vapor or sublimation pressure (297.83 K, Crystal): 0.000947 ± 0.00011 kPa
vapor or sublimation pressure (300.23 K, Crystal): 0.001197 ± 0.00011 kPa
vapor or sublimation pressure (300.35 K, Crystal): 0.001218 ± 0.00011 kPa
vapor or sublimation pressure (302.84 K, Crystal): 0.001542 ± 0.00012 kPa
vapor or sublimation pressure (304.06 K, Crystal): 0.001742 ± 0.00013 kPa
vapor or sublimation pressure (304.13 K, Crystal): 0.001753 ± 0.00013 kPa
vapor or sublimation pressure (305.54 K, Crystal): 0.002007 ± 0.00013 kPa
vapor or sublimation pressure (307.9 K, Crystal): 0.002499 ± 0.00015 kPa
vapor or sublimation pressure (311.31 K, Crystal): 0.003428 ± 0.00017 kPa
vapor or sublimation pressure (312.99 K, Crystal): 0.00399 ± 0.00019 kPa
vapor or sublimation pressure (315.35 K, Crystal): 0.004949 ± 0.00023 kPa
vapor or sublimation pressure (316.48 K, Crystal): 0.005493 ± 0.00025 kPa
vapor or sublimation pressure (317.93 K, Crystal): 0.006236 ± 0.00027 kPa
vapor or sublimation pressure (319.06 K, Crystal): 0.006868 ± 0.0003 kPa
vapor or sublimation pressure (320.29 K, Crystal): 0.007672 ± 0.00033 kPa
vapor or sublimation pressure (320.95 K, Crystal): 0.008091 ± 0.00034 kPa
vapor or sublimation pressure (321.69 K, Crystal): 0.008661 ± 0.00036 kPa
vapor or sublimation pressure (322.63 K, Crystal): 0.00937 ± 0.00039 kPa
vapor or sublimation pressure (324 K, Crystal): 0.01056 ± 0.00045 kPa
vapor or sublimation pressure (325.29 K, Crystal): 0.01176 ± 0.0005 kPa
vapor or sublimation pressure (325.31 K, Crystal): 0.0117 ± 0.00049 kPa
vapor or sublimation pressure (327.79 K, Crystal): 0.01447 ± 0.00056 kPa
vapor or sublimation pressure (330.22 K, Crystal): 0.01764 ± 0.00062 kPa
vapor or sublimation pressure (331.21 K, Crystal): 0.01908 ± 0.00065 kPa
vapor or sublimation pressure (332.72 K, Crystal): 0.0215 ± 0.00069 kPa
vapor or sublimation pressure (335.15 K, Crystal): 0.02616 ± 0.00077 kPa
vapor or sublimation pressure (336.4 K, Crystal): 0.02867 ± 0.00082 kPa
vapor or sublimation pressure (337.89 K, Crystal): 0.03234 ± 0.00089 kPa
vapor or sublimation pressure (340.33 K, Crystal): 0.03875 ± 0.001 kPa
vapor or sublimation pressure (341.35 K, Crystal): 0.04176 ± 0.0011 kPa
vapor or sublimation pressure (342.83 K, Crystal): 0.04685 ± 0.0012 kPa
vapor or sublimation pressure (345.27 K, Crystal): 0.05631 ± 0.0013 kPa
vapor or sublimation pressure (346.28 K, Crystal): 0.06042 ± 0.0014 kPa
vapor or sublimation pressure (347.77 K, Crystal): 0.06739 ± 0.0015 kPa
vapor or sublimation pressure (350.23 K, Crystal): 0.08052 ± 0.0018 kPa
vapor or sublimation pressure (351.2 K, Crystal): 0.08649 ± 0.0019 kPa
vapor or sublimation pressure (352.7 K, Crystal): 0.09579 ± 0.0021 kPa
vapor or sublimation pressure (355.17 K, Crystal): 0.1142 ± 0.0024 kPa
vapor or sublimation pressure (357.88 K, Crystal): 0.1377 ± 0.0026 kPa
vapor or sublimation pressure (360.37 K, Crystal): 0.1622 ± 0.0029 kPa
vapor or sublimation pressure (362.8 K, Crystal): 0.1914 ± 0.0033 kPa
vapor or sublimation pressure (365.3 K, Crystal): 0.2244 ± 0.0037 kPa
vapor or sublimation pressure (367.75 K, Crystal): 0.2639 ± 0.0043 kPa
vapor or sublimation pressure (370.2 K, Crystal): 0.3093 ± 0.0049 kPa
vapor or sublimation pressure (372.93 K, Crystal): 0.3682 ± 0.0056 kPa
vapor or sublimation pressure (375.4 K, Crystal): 0.425 ± 0.0064 kPa
vapor or sublimation pressure (377.87 K, Crystal): 0.4978 ± 0.0074 kPa
vapor or sublimation pressure (380.32 K, Crystal): 0.5748 ± 0.0084 kPa
vapor or sublimation pressure (382.8 K, Crystal): 0.6695 ± 0.0097 kPa
vapor or sublimation pressure (385.27 K, Crystal): 0.7725 ± 0.011 kPa
vapor or sublimation pressure (387.75 K, Crystal): 0.8978 ± 0.013 kPa
vapor or sublimation pressure (390.22 K, Crystal): 1.03 ± 0.014 kPa
vapor or sublimation pressure (392.69 K, Crystal): 1.185 ± 0.016 kPa

c1ccc2ccccc2c1 [naphthalene]
vapor or sublimation pressure (297.72 K, Crystal): 0.01042 ± 0.00045 kPa
vapor or sublimation pressure (300.06 K, Crystal): 0.0131 ± 0.00054 kPa
vapor or sublimation pressure (302.47 K, Crystal): 0.01651 ± 0.0006 kPa
vapor or sublimation pressure (304.88 K, Crystal): 0.02077 ± 0.00068 kPa
vapor or sublimation pressure (307.27 K, Crystal): 0.02598 ± 0.00078 kPa
vapor or sublimation pressure (309.69 K, Crystal): 0.03247 ± 0.00091 kPa
vapor or sublimation pressure (312.35 K, Crystal): 0.04107 ± 0.0011 kPa
vapor or sublimation pressure (314.78 K, Crystal): 0.05102 ± 0.0013 kPa
vapor or sublimation pressure (317.21 K, Crystal): 0.06281 ± 0.0015 kPa
vapor or sublimation pressure (319.66 K, Crystal): 0.0774 ± 0.0018 kPa
vapor or sublimation pressure (322.08 K, Crystal): 0.0949 ± 0.0021 kPa
vapor or sublimation pressure (324.51 K, Crystal): 0.1161 ± 0.0025 kPa
vapor or sublimation pressure (326.97 K, Crystal): 0.1415 ± 0.0027 kPa
